Laboratory results as given in PubChem BioAssay (NCI).
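Five concentrations, 48 hours, 96-well plates. Here, GI50 denotes the concentration required for 50% inhibition of growth. The concentration for full growth arrest is given as TGI.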

Legend:
Test in all cases: NCI-60 cell line screen, 48 h
UO-31 renal = test system: UO-31 renal
NCI-H23 lung = test system: NCI-H23 lung
786-0 renal = test system: 786-0 renal
SF-539 CNS = test system: SF-539 CNS
HL-60(TB) leukemia = test system: HL-60(TB) leukemia
EKVX NSCLC = test system: EKVX NSCLC
HOP-62 NSCLC = test system: HOP-62 NSCLC
TK-10 renal = test system: TK-10 renal
DMS 273 small cell lung = test system: DMS 273 small cell lung
DMS 114 small cell lung = test system: DMS 114 small cell lung

| Compound | GI50 (UO-31 renal) [µM] | TGI (UO-31 renal) [µM] | GI50 (NCI-H23 lung) [µM] | TGI (NCI-H23 lung) [µM] | GI50 (786-0 renal) [µM] | TGI (786-0 renal) [µM] | GI50 (SF-539 CNS) [µM] | TGI (SF-539 CNS) [µM] | GI50 (HL-60(TB) leukemia) [µM] | TGI (HL-60(TB) leukemia) [µM] | GI50 (EKVX NSCLC) [µM] | TGI (EKVX NSCLC) [µM] | GI50 (HOP-62 NSCLC) [µM] | TGI (HOP-62 NSCLC) [µM] | GI50 (TK-10 renal) [µM] | TGI (TK-10 renal) [µM] | TGI (DMS 273 small cell lung) [µM] | GI50 (DMS 273 small cell lung) [µM] | TGI (DMS 114 small cell lung) [µM] |
| --- | --- | --- | --- | --- | --- | --- | --- | --- | --- | --- | --- | --- | --- | --- | --- | --- | --- | --- | --- |
| CN1CCC2(CC1)C(=O)Nc1cc(NC(=O)c3ccc4c(c3)C[C@@H]3C(C)(C)[C@H](O)[C@H](F)C[C@@]3(C)O4)ccc12 | 4.67 | 19.1 | 10.6 | 42.5 | 0.249 | 14.9 | 0.0565 | 15.9 | 0.0842 | 13.7 | 29.8 | > 100 | 1.04 | 23 | 21.4 | 76.3 | – | – | – |
| CC(C)OC(=O)Nc1c([N+](=O)[O-])cc(C(F)(F)F)cc1[N+](=O)[O-] | – | > 100 | – | > 100 | – | > 100 | – | 70.3 | – | > 100 | – | > 100 | – | > 100 | – | > 100 | > 100 | – | – |
| Clc1ccc(NCNC2Nc3ccccc3N2)cc1Cl | – | > 100 | – | > 100 | – | > 100 | – | > 100 | – | > 100 | – | > 100 | – | > 100 | – | > 100 | – | – | – |
| CCOC(=O)c1sc2nc(=S)[nH]c(NC(N)=S)c2c1C | 20.3 | 61.7 | 14.8 | 37.1 | 21.5 | 45.5 | 11.9 | 25.4 | 51.2 | > 100 | 2.49 | 30.6 | 21 | 49.7 | 95.5 | > 100 | – | – | – |
| C=C(C)[C@@H]1CC[C@]2(C(=O)OC)CC[C@]3(C)[C@H](CC[C@@H]4[C@@](C)(CCc5nn[nH]n5)[C@H](C(=C)C)CC[C@]43C)[C@@H]12 | 10.9 | 23 | 16.4 | 39.4 | 53.4 | > 100 | 16.5 | 30.7 | 19 | 62.3 | 19.2 | 61 | 18.7 | 41.1 | 30.9 | > 100 | – | – | – |
| O=C(O)C1CCCN1 (centres undefined) | – | > 100 | – | > 100 | – | > 100 | – | > 100 | – | > 100 | – | > 100 | – | > 100 | – | > 100 | – | – | – |
| [O-]c1ccccc1C=NCCN=Cc1ccccc1[O-].[O]=[U+2]=[O] | 29.8 | > 60.6 | 22.6 | 61.1 | 18.6 | 39.2 | 16.7 | 37.6 | > 48.4 | > 84.5 | 61.5 | > 100 | > 43.3 | > 67 | 26.3 | 53.1 | > 100 | 32.5 | – |
| CN1CCN(CCCOC(=O)c2c3c(n4ccccc24)C(=O)c2ncccc2C3=O)CC1 | < 0.01 | – | < 0.01 | < 0.0172 | < 0.01 | 0.0407 | < 0.0154 | 0.103 | 0.0684 | 14.6 | 0.0456 | 12.6 | < 0.01 | 0.0393 | 0.113 | 21.6 | – | – | – |
| Cc1cc(C)c2c(c1)CSCc1cc(C)cc(C)c1-2 | – | > 100 | – | > 100 | – | > 100 | – | – | – | 43.3 | – | 81.9 | – | 69.8 | – | > 100 | > 100 | – | 69.9 |
| CC1COS(=O)N1c1ccccc1 (centres undefined) | – | > 100 | – | > 100 | – | > 100 | – | – | – | > 100 | – | > 100 | – | > 100 | – | > 100 | > 100 | – | > 100 |
| COc1cccc2c1C(=O)c1c(O)c3c(c(O)c1C2=O)C[C@@](O)(/C(C)=N/NC(=O)c1cccc([N+](=O)[O-])c1)C[C@@H]3OC1CC(N)C(O)C(C)O1 (some centres undefined) | 0.882 | > 22 | 0.316 | 2.87 | 0.306 | 5.68 | 0.21 | 1.22 | 0.146 | 0.923 | 0.495 | 4.66 | 0.283 | 4.41 | 0.896 | 10.2 | – | – | – |
| CC(C)Cn1cnc2c(N)nc3ccccc3c21 | 35.8 | > 100 | 37.1 | > 100 | 25.2 | > 87.3 | 42.9 | > 100 | > 47.7 | > 100 | 26.2 | > 100 | 22.5 | > 64.1 | 94.8 | > 100 | – | – | – |
| CSC(=Nc1ccc([N+](=O)[O-])cc1C#N)NC(=O)c1ccccc1 | – | – | – | > 100 | – | > 100 | – | > 100 | – | > 100 | – | > 100 | – | > 100 | – | > 100 | – | – | > 100 |
